Here are results for three compounds from US12502372B2, “(9beta-H)-pimarane mother nucleus diterpenoid compound with anti-colon cancer activity and derivative thereof, and preparation method thereof” (NANJING UNIVERSITY OF CHINESE MEDICINE, priority 2023, dated 2025).

Each structure is given as a SMILES string.

Series [1] has as its system HT-29 colon cancer cells. As to the kind of experiment: MTT proliferation inhibition (cell viability) on colon cancer cell line HT-29. The conditions noted are these: for IC50: Homo sapiens, HT-29 colon cancer cell line, 24 hours with drug, MTT method, OD 570 nm, read-out: IC50 ± SD, HT-29. The series is classed as cell-based. The protocol:
(§1) Colon cancer cell lines HT-29 and SW620 (cell bank of Chinese Academy of Sciences) were cultured in a DMEM culture solution containing 10% fetal bovine serum (Gibco Company of America) at 37° C. under 5% CO2. During subculturing, a dish of tumor cells was taken out first, the culture solution was removed, and 3 mL of PBS was added to wash the cells twice; 1 mL of trypsin was added for digestion, 1 mL of culture solution was added after 2 minutes to stop the digestion, and the mixture was centrifuged at 1000 r/min and room temperature for 5 minutes; and a supernatant was removed, 1 mL of DMEM culture medium containing 10% fetal bovine serum was added, and the mixture was resuspended to obtain a cell suspension.
(§2) Different volumes of DMEM culture media were added to dilute the compounds into different concentrations. Meanwhile, a DMEM culture medium containing 0.1% DMSO was used as a negative control.
(§3) Tumor cells were suspended in a culture medium, inoculated into a 96-well plate (100 μL/well) by a cell density of 6×10^3, and cultured at 37° C. under 5% CO2 for 24 hours. In a logarithmic growth period of the tumor cell lines, different concentrations of compounds were added to culture the cells at 37° C. under 5% CO2 for 24 hours.
(§4) After 24 hours of interaction between the drugs and the tumor cells, 20 μL of MTT solution (5 mg/mL) was added into each well to incubate the cells in a sterile incubator for 3 hours. A supernatant was removed completely, and 150 μL of DMSO was added into each well to react on a shaker for 30 minutes, so as to dissolve bluish violet formazan crystals. An OD value was determined at a wavelength of 570 nm with a microplate reader. IC50 (median inhibitory concentration) values of the compounds were calculated by GraphPad Prism 8 software, and 5-FU was used as a positive control.
On the technique in general: Tetrazolium dyes change colour on reduction, which living cells bring about.

In series [2] the test system is colon cancer cell line SW620. As to the kind of experiment: MTT proliferation inhibition (cell viability) on colon cancer cell line SW620. Format: cell-based. Particulars: for IC50: Homo sapiens, SW-620, SW620 colon cancer cell line, 24 hours with drug, MTT method, OD 570 nm, read-out: IC50 ± SD, SW620. On the procedure:
as §1, §2, §3, §4

The term IC50 denotes the concentration that gives 50% inhibition. In the case of `O=c1[nH]cc(F)c(=O)[nH]1` [Compound 5-FU, 5-fluorouracil, reference compound], the IC50 in series [1] amounted to 9.18 ± 1.61 µM; in series [2] it was 14.2 ± 1.43 µM.

As for `C[C@@H](C(=O)O)[C@@H]1[C@H]2C[C@H]3c4occc4C(=O)C[C@H]3[C@]1(CCC(=O)O)CO2` [Compound 1, secoicacinlivitholide F], the IC50 in series [1] is over 20 µM.

For `COC(=O)CC[C@]12CO[C@H](C[C@H]3c4occc4C(=O)C[C@H]31)[C@H]2[C@@H](C)C(=O)O` [Compound 2, secoicacinlivitholide G], in series [1] (HT-29, compared with 5-FU), the “inhibiting effect on HT-29 relative to positive drug 5-FU” value is on record as “about three times that of the positive drug 5-FU”. Further, the “anti-proliferation effect on HT-29 (in words)” value in series [1] (HT-29, stated stronger than positive drug 5-FU) is given as “remarkable anti-proliferation effects”. For the same compound, the IC50 was found to be 3.12 ± 1.63 µM in series [1] and 9.92 ± 1.68 µM in series [2]. Besides, in series [2] (SW620, stated stronger than positive drug 5-FU), the “anti-proliferation effect on SW620 (in words)” value is reported as “remarkable anti-proliferation effects”.
